In patent US8999889B2, “Substituted ketonic isoxazoline compounds and derivatives for combating animal pests” (BASF SE, priority 2010, dated 2015):

Legend:
Format in all cases: in vivo
[1] = system: Bemisia argentifolii; test: Silverleaf whitefly (Bemisia argentifolii), sprayed cotton plants; conditions: 72 h, Bemisia argentifolii adults, 3 days after treatment, read-out: mortality in comparison with untreated controls
Source text: B.3 Silverleaf Whitefly (Bemisia argentifolii)
(§1) The active compounds were formulated in cyclohexanone as a 10,000 ppm solution supplied in tubes. The tubes were inserted into an automated electrostatic sprayer equipped with an atomizing nozzle and they served as stock solutions for which lower dilutions were made in 50% acetone:50% water (v/v). A nonionic surfactant (Kinetic®) was included in the solution at a volume of 0.01% (v/v).
Cotton plants at the cotyledon stage (one plant per pot) were sprayed by an automated electrostatic plant sprayer equipped with an atomizing spray nozzle. The plants were dried in the sprayer fume hood and then removed from the sprayer. Each pot was placed into a plastic cup and about 10 to 12 whitefly adults (approximately 3-5 days old) were introduced. The insects were collected using an aspirator and a nontoxic Tygon® tubing connected to a barrier pipette tip. The tip, containing the collected insects, was then gently inserted into the soil containing the treated plant, allowing insects to crawl out of the tip to reach the foliage for feeding. Cups were covered with a reusable screened lid. […] Mortality was assessed 3 days after treatment, compared to untreated control plants.

[2] = system: Ceratitis capitata; test: Mediterranean fruitfly (Ceratitis capitata), microtiter plate with insect diet and eggs; conditions: 120 h, egg and larval mortality after 5 days, read-out: mortality in comparison with untreated controls
Procedure: B.2 Mediterranean Fruitfly (Ceratitis capitata)
For evaluating control of Mediterranean fruitfly (Ceratitis capitata) the test unit consisted of microtiter plates containing an insect diet and 50-80 C. capitata eggs.
The compounds were formulated using a solution containing 75% v/v water and 25% v/v DMSO. Different concentrations of formulated compounds were sprayed onto the insect diet at 5 μl, using a custom built micro atomizer, at two replications. After application, microtiter plates were incubated at about 28±1° C. and about 80±5% relative humidity for 5 days. Egg and larval mortality was then visually assessed.

[3] = system: Heliothis virescens; test: Tobacco budworm (Heliothis virescens) I, sprayed cotton plants; conditions: 96 h, Heliothis virescens larvae, 4 days after treatment, read-out: mortality in comparison with untreated controls
Procedure: B.6 Tobacco Budworm (Heliothis virescens) I
as §1
Cotton plants were grown 2 plants to a pot and selected for treatment at the cotyledon stage. Test solutions were sprayed onto the foliage by an automated electrostatic plant sprayer equipped with an atomizing spray nozzle. The plants were dried in the sprayer fume hood and then removed from the sprayer. Each pot was placed into perforated plastic bags with a zip closure. About 10 to 11 budworm larvae were placed into the bag and the bags zipped closed. Test plants were maintained in a growth room at about 25° C. and about 20-40% relative humidity for 4 days, avoiding direct exposure to fluorescent light (24 hour photoperiod) to prevent trapping of heat inside the bags. Mortality and reduced feeding were assessed 4 days after treatment, compared to untreated control plants.

[4] = system: Plutella xylostella; test: Diamond back moth (Plutella xylostella), dipped Chinese cabbage leaves; conditions: mortality recorded 24, 72, and 120 hours after treatment, read-out: mortality in comparison with untreated controls
Procedure: If not otherwise specified the test solutions were prepared as follow:
The active compound was dissolved at the desired concentration in a mixture of 1:1 (vol:vol) distilled water:acteon. The test solution was prepared at the day of use and in general at concentrations of ppm (wt/vol).
B.1 Diamond Back Moth (Plutella xylostella)
Leaves of Chinese cabbage were dipped in test solution and air-dried. Treated leaves were placed in petri dished lined with moist filter paper. Mortality was recorded 24, 72, and 120 hours after treatment.

[5] = system: Megoura viciae; test: Vetch aphid (Megoura viciae), broad bean leaf disks in microtiter plates; conditions: foliar, 120 h, Megoura viciae adults, 5 days, read-out: mortality in comparison with untreated controls
Procedure: B.5 Vetch aphid (Megoura viciae)
For evaluating control of vetch aphid (Megoura viciae) through contact or systemic means the test unit consisted of 24-well-microtiter plates containing broad bean leaf disks.
The compounds were formulated using a solution containing 75% v/v water and 25% v/v DMSO. Different concentrations of formulated compounds were sprayed onto the leaf disks at 2.5 μl, using a custom built micro atomizer, at two replications. After application, the leaf disks were air-dried and 5-8 adult aphids placed on the leaf disks inside the microtiter plate wells. The aphids were then allowed to suck on the treated leaf disks and incubated at about 23±1° C. and about 50±5% relative humidity for 5 days. Aphid mortality and fecundity was then visually assessed.

[6] = system: Myzus persicae; test: Green peach aphid (Myzus persicae), artificial diet under membrane, systemic; conditions: 72 h, Myzus persicae adults, 3 days, read-out: mortality in comparison with untreated controls
Source text: B.8 Green Peach Aphid (Myzus Persicae)
For evaluating control of green peach aphid (Myzus persicae) through systemic means the test unit consisted of 96-well-microtiter plates containing liquid artificial diet under an artificial membrane.
The compounds were formulated using a solution containing 75% v/v water and 25% v/v DMSO. Different concentrations of formulated compounds were pipetted into the aphid diet, using a custom built pipetter, at two replications.
After application, 5-8 adult aphids were placed on the artificial membrane inside the microtiter plate wells. The aphids were then allowed to suck on the treated aphid diet and incubated at about 23±1° C. and about 50±5% relative humidity for 3 days. Aphid mortality and fecundity was then visually assessed.

[7] = system: Spodoptera eridania; test: Southern armyworm (Spodoptera eridania), sprayed lima bean plants; conditions: 96 h, Spodoptera eridania larvae, 4 days after treatment, read-out: mortality in comparison with untreated controls
Procedure: B.4 Southern Armyworm (Spodoptera eridania)
as §1
Lima bean plants (variety Sieva) were grown 2 plants to a pot and selected for treatment at the 1st true leaf stage. Test solutions were sprayed onto the foliage by an automated electrostatic plant sprayer equipped with an atomizing spray nozzle. The plants were dried in the sprayer fume hood and then removed from the sprayer. Each pot was placed into perforated plastic bags with a zip closure. About 10 to 11 armyworm larvae were placed into the bag and the bags zipped closed. Test plants were maintained in a growth room at about 25° C. and about 20-40% relative humidity for 4 days, avoiding direct exposure to fluorescent light (24 hour photoperiod) to prevent trapping of heat inside the bags. Mortality and reduced feeding were assessed 4 days after treatment, compared to untreated control plants.

[8] = system: Anthonomus grandis; test: Boll weevil (Anthonomus grandis), microtiter plate with insect diet and eggs; conditions: 120 h, egg and larval mortality after 5 days, read-out: mortality in comparison with untreated controls
Procedure: B.7 Boll Weevil (Anthonomus grandis)
For evaluating control of boll weevil (Anthonomus grandis) the test unit consisted of 24-well-microtiter plates containing an insect diet and 20-30 A. grandis eggs.
The compounds were formulated using a solution containing 75% v/v water and 25% v/v DMSO. Different concentrations of formulated compounds were sprayed onto the insect diet at 20 μl, using a custom built micro atomizer, at two replications.
After application, microtiter plates were incubated at about 23±1° C. and about 50±5% relative humidity for 5 days. Egg and larval mortality was then visually assessed.

Cc1cc(C2=NOC(c3cc(Cl)cc(Cl)c3)(C(F)(F)F)C2)ccc1C(=O)CC(C)C (stereo not drawn) [Compound 1-2, 1-{4-[5-(3,5-Dichloro-phenyl)-5-trifluoromethyl-4,5-dihydro-isoxazol-3-yl]-2-methyl-phenyl}-3-methyl-butan-1-one]
≥ 75%: mortality at 300 ppm [1] | mortality at 2500 ppm [2] | mortality at 2500 ppm [3] | mortality at 300 ppm [4] | mortality at 2500 ppm [5] | mortality at 2500 ppm [6] | mortality at 300 ppm [7]

CC(=O)c1ccc(C2=NOC(c3cc(Cl)cc(Cl)c3)(C(F)(F)F)C2)cc1C (stereo not drawn) [Compound 1-1, 1-{4-[5-(3,5-Dichloro-phenyl)-5-trifluoromethyl-4,5-dihydro-isoxazol-3-yl]-2-methyl-phenyl}-ethanone]
≥ 75%: mortality at 300 ppm [1] | mortality at 2500 ppm [2] | mortality at 2500 ppm [3] | mortality at 300 ppm [4] | mortality at 2500 ppm [5] | mortality at 2500 ppm [6] | mortality at 300 ppm [7] | mortality at 2500 ppm [8]
